In patent US12398154B2, “Azaquinazoline pan-KRas inhibitors” (Mirati Therapeutics, Inc., priority 2020, dated 2025):

Legend:
KRas G12R = KRas G12R (Homo sapiens, UniProt P01116, G12R); assay: biochemical;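 also: TR-FRET displacement assay of compound binding to KRas, read after one hour at room temperature, potency from a four-parameter fit of percent-of-control values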
Protocol: (§2) The ability of a compound to bind to KRas was measured using a TR-FRET displacement assay. […] After a 60-minute incubation at room temperature, the reaction was measured using a BMG LABTECH CLARIO star Plus via TR-FRET. […] The POC values were fit to a 4-parameter IC50 equation and the IC50 value reported.

pERK in H460 cells = assay: Inhibition of KRas phosphorylation of ERK (Cisbio HTRF pERK assay); conditions: Homo sapiens, NCI-H460, read-out: Inhibition (HTRF IC50) of KRas-mediated Phosphorylation of ERK, H460
pERK in H358 cells = assay: as above; conditions: Homo sapiens, NCI-H358, read-out: Inhibition (HTRF IC50) of KRas-mediated Phosphorylation of ERK, H358
pERK in PSN1 cells = assay: as above; conditions: Homo sapiens, PSN1, 3 h, read-out: Inhibition (HTRF IC50) of KRas-mediated Phosphorylation of ERK, PSN1
pERK in MKN1 cells = assay: as above; conditions: Homo sapiens, MKN-1, 3 h, read-out: Inhibition (HTRF IC50) of KRas-mediated Phosphorylation of ERK, MKN1
pERK in HCT116 cells = assay: as above; conditions: Homo sapiens, HCT-116, read-out: Inhibition (HTRF IC50) of KRas-mediated Phosphorylation of ERK, HCT116
Protocol: (§3) To harvest cells from flask using 0.05% Trypsin/EDTA solution. Add 10 mL of media to stop trypsinizing. Pipette the cells into a conical bottom 50 mL centrifuge tube and centrifuge 5 min×1000 rpm. • 2. Re-suspend the cell pellet in media, take a cell count, and then adjust the cell density using fresh media. • 3. Seed 6,000 cells into cell culture plate with 50 μL media. […] Incubate cell plate overnight in a 37° C., 5% CO2 incubator. • Compound titrations • 1. Use Tecan to complete the compound addition. Compounds start from 10 uM top, 3-fold dilution, and 10 doses. The final DMSO concentration is 0.8%. Dispensed 0.2 uM Trametinib as Min control. • 2. Incubate cell plate for 3 hrs in the incubator. • Detection with cisbio pERK HTRF kit • 1. […] At the end of the compound treatment, flick-off the media. • 3. Add 35 μL of lysis buffer per well using a Multidrop Combi. Then place on a plate agitator shaking at 300 rpm at 4° C. for 40 mins. • 4. Make up the HTRF antibody buffer. For each assay plate, mix 50 μL of d2-conjugate antibody with 950 μL of detection buffer. Similarly, mix 50 μL of Cryptate antibody with 950 μL of detection buffer. Then mix the two diluted antibodies together. • 5. Dispense 3.4 μL the antibody buffer to wells of an empty assay plate. Seal the plate and centrifuge plate 30 sec×1000 rpm. • 6. At the end of the 4° C. lysis, centrifuge the lysate plates 3 mins×1500 rpm. • 7. Use the Bravo to transfer 13.6 μL of lysate from cell culture plate to assay plate.
(§4) Then incubate assay plate for 2 hrs at room temperature. […] At the end of incubation, read plate on the Envision after centrifuging plate 30 sec× • 1000 rpm.

pERK in ASPC1 cells = assay: as above; conditions: Homo sapiens, ASPC1, read-out: Inhibition (HTRF IC50) of KRas-mediated Phosphorylation of ERK, AsPC-1
Protocol: as §3, §4

pERK in H727 cells = assay: as above; conditions: Homo sapiens, NCI-H727, read-out: Inhibition (HTRF IC50) of KRas-mediated Phosphorylation of ERK, H727
KRas G12V = KRas G12V (Homo sapiens, UniProt P01116, G12V); assay: biochemical;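 also: KRas binding measured by TR-FRET displacement at room temperature, IC50 fitted from percent of control values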
Protocol: as §2

KRas G12D = KRas G12D (Homo sapiens, UniProt P01116, G12D); assay: biochemical;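 also: TR-FRET displacement binding assay on KRas, read after a one-hour incubation at room temperature, IC50 fitted from percent-of-control values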
Protocol: as §2

[1] = test system: phospho-ERK in NCI-H460 (Q61H) cells; assay: Inhibition of KRas-mediated phosphorylation of ERK (in-cell western); type: cell-based; conditions: Homo sapiens, NCI-H460, 3 h, 3 hours compound, phospho-ERK normalized to GAPDH
Method in brief: (§1)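 Cells treated 3 h with compounds (0.5% DMSO), fixed in formaldehyde and methanol-permeabilized. In-cell western for phospho-ERK (Thr202/Tyr204) normalized to GAPDH, as % of DMSO control; IC50 by 4-parameter fit.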

[2] = test system: phospho-ERK in AsPC-1 (G12D) cells; assay: as above; type: cell-based; conditions: Homo sapiens, ASPC1, 3 h, 3 hours compound, phospho-ERK normalized to GAPDH
Method in brief: as §1

[3] = test system: phospho-ERK in NCI-H727 (G12V) cells; assay: as above; type: cell-based; conditions: Homo sapiens, NCI-H727, 3 h, 3 hours compound, phospho-ERK normalized to GAPDH
Method in brief: as §1

KRas WT = KRas WT (Homo sapiens, UniProt P01116); assay: biochemical;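 also: binding to KRas read as TR-FRET displacement after a one-hour room-temperature incubation, IC50 derived from percent-of-control values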
Protocol: as §2

KRas G12C = KRas G12C (Homo sapiens, UniProt P01116, G12C); assay: biochemical;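 also: binding to KRas assessed by TR-FRET displacement after one hour incubation at room temperature, potency fitted from percent-of-control values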
Protocol: as §2

KRas G12S = KRas G12S (Homo sapiens, UniProt P01116, G12S); assay: biochemical;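 also: TR-FRET displacement binding to KRas, read after one hour incubation at room temperature, IC50 from four-parameter fit of percent of control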
Protocol: as §2

KRas G12A = KRas G12A (Homo sapiens, UniProt P01116, G12A); assay: biochemical;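 also: binding to KRas measured by TR-FRET displacement after one hour at room temperature, IC50 from a four-parameter fit of percent-of-control values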
Protocol: as §2

pERK in A549 cells = assay: Inhibition of KRas phosphorylation of ERK (Cisbio HTRF pERK assay); conditions: Homo sapiens, A549, read-out: Inhibition (HTRF IC50) of KRas-mediated Phosphorylation of ERK, A549

KRas G12D, sequence (P01116 1-169 isoform P01116-2 G12D): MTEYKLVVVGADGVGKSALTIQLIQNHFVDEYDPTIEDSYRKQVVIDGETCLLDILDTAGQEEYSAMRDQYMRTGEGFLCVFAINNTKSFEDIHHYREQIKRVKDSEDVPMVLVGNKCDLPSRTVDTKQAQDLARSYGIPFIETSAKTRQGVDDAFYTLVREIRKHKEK
KRas G12V, sequence (P01116 1-169 isoform P01116-2 G12V): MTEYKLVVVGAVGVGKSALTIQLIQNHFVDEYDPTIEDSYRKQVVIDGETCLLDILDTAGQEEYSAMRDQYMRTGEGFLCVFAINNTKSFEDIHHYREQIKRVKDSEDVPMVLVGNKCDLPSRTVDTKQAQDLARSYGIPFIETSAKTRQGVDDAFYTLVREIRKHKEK
KRas G12R, sequence (P01116 1-169 isoform P01116-2 G12R): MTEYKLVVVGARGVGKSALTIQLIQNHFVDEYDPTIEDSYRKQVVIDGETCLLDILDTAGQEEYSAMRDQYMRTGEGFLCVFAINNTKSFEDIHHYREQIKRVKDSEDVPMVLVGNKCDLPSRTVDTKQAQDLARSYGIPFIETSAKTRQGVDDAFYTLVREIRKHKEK
KRas G12A, sequence (P01116 1-169 isoform P01116-2 G12A): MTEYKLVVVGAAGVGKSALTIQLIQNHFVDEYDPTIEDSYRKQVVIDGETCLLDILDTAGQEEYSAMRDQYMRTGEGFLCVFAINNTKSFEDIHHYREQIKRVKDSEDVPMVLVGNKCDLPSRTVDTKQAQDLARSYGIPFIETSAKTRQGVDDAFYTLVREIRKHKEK
KRas G12C, sequence (P01116 1-169 isoform P01116-2 G12C): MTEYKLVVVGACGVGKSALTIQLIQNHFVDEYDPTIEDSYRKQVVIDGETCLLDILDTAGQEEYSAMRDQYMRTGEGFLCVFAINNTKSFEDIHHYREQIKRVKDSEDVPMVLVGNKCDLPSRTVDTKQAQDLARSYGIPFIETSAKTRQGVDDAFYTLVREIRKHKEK
KRas WT, sequence (P01116 1-169 isoform P01116-2): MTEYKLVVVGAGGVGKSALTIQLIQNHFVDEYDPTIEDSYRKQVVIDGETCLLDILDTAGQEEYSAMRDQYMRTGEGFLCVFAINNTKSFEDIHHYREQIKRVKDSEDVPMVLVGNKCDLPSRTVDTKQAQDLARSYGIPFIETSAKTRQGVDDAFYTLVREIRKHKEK
KRas G12S, sequence (P01116 1-169 isoform P01116-2 G12S): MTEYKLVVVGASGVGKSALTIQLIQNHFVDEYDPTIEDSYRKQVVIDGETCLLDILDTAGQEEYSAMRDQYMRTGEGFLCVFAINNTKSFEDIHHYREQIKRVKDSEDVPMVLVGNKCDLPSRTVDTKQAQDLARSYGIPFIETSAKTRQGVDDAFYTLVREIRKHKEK

| SMILES | IC50 (KRas G12R) | IC50 (pERK in H460 cells) | IC50 (pERK in H358 cells) | IC50 (pERK in PSN1 cells) | IC50 (pERK in MKN1 cells) | IC50 (pERK in HCT116 cells) | IC50 (pERK in ASPC1 cells) | IC50 (pERK in H727 cells) | IC50 (KRas G12V) | IC50 (KRas G12D) | IC50 (KRas WT) | IC50 (KRas G12C) | IC50 (KRas G12S) | IC50 (KRas G12A) | IC50 (pERK in A549 cells) | IC50 [1] | IC50 [2] | IC50 [3] |
| --- | --- | --- | --- | --- | --- | --- | --- | --- | --- | --- | --- | --- | --- | --- | --- | --- | --- | --- |
| CCc1c(F)ccc2cc(O)cc(-c3ncc4c(N5CCCC(C#N)CC5)nc(OC[C@@]56CCCN5C[C@H](F)C6)nc4c3F)c12 (stereo partly shown) [Example 173] | 6 nM | 176 nM | 95 nM | 5540 nM | 42 nM | 454 nM | 56 nM | 263 nM | 4 nM | 6 nM | – | – | – | – | – | 145 nM | 180 nM | 304 nM |
| CCc1c(F)ccc2cc(O)cc(-c3ncc4c(N5CCCC6(C5)NC(=O)NC6=O)nc(OC[C@@]56CCCN5C[C@H](F)C6)nc4c3F)c12 (stereo partly shown) [Example 196] | ≤ 2 nM | 33 nM | 31 nM | 314 nM | 39 nM | 114 nM | 97 nM | 167 nM | ≤ 2 nM | ≤ 2 nM | – | – | – | – | – | 48 nM | 361 nM | 452 nM |
| CCc1c(F)ccc2cc(O)cc(-c3ncc4c(N5CCC[C@@](C)(O)C5)nc(OCC5(CN6CCCCC6)CC5)nc4c3F)c12 [Example 331, (R)-1-(7-(8-ethyl-7-fluoro-3-hydroxynaphthalen-1-yl)-8-fluoro-2-((1-(piperidin-1-ylmethyl)cyclopropyl)methoxy)pyrido[4,3-d]pyrimidin-4-yl)-3-methylpiperidin-3-ol] | ≤ 2 nM | 16 nM | 3 nM | – | 1 nM | 27 nM | 4 nM | 35 nM | ≤ 2 nM | ≤ 2 nM | – | – | – | – | 6 nM | – | – | – |
| CCc1c(F)ccc2cc(O)cc(-c3ncc4c(N5CCC[C@@](C)(O)C5)nc(OCC(C)(C)CN(C)C)nc4c3F)c12 [Example 366, (R)-1-(2-(3-(dimethylamino)-2,2-dimethylpropoxy)-7-(8-ethyl-7-fluoro-3-hydroxynaphthalen-1-yl)-8-fluoropyrido[4,3-d]pyrimidin-4-yl)-3-methylpiperidin-3-ol] | 9 nM | 108 nM | 61 nM | 5530 nM | 11 nM | 321 nM | 60 nM | 185 nM | 3 nM | 3 nM | – | – | – | – | – | – | – | – |
| CCc1c(F)ccc2cc(O)cc(-c3ncc4c(N5CCC[C@]6(C5)NC(=O)NC6=O)nc(OC[C@@]56CCCN5C[C@H](F)C6)nc4c3F)c12 [Example 307, (R)-7-(7-(8-ethyl-7-fluoro-3-hydroxynaphthalen-1-yl)-8-fluoro-2-(((2R,7aS)-2-fluorohexahydro-1H-pyrrolizin-7a-yl)methoxy)pyrido[4,3-d]pyrimidin-4-yl)-1,3,7-triazaspiro[4.5]decane-2,4-dione] | ≤ 2 nM | 12 nM | 15 nM | 106 nM | 5 nM | 33 nM | 58 nM | 85 nM | ≤ 2 nM | ≤ 2 nM | – | – | – | – | – | 11 nM | 117 nM | 215 nM |
| O=S1(=O)NCC2(CCCN(c3nc(OC[C@@]45CCCN4C[C@H](F)C5)nc4c(F)c(-c5cc(O)cc6ccc(F)c(Br)c56)ncc34)C2)N1 (stereo partly drawn) [Example 411, 7-(7-(8-bromo-7-fluoro-3-hydroxynaphthalen-1-yl)-8-fluoro-2-(((2R,7aS)-2-fluorohexahydro-1H-pyrrolizin-7a-yl)methoxy)pyrido[4,3-d]pyrimidin-4-yl)-2-thia-1,3,7-triazaspiro[4.5]decane 2,2-dioxide] | ≤ 2 nM | 48 nM | 9 nM | 146 nM | 40 nM | 92 nM | 63 nM | 83 nM | ≤ 2 nM | ≤ 2 nM | – | – | – | – | – | – | – | – |
| CCc1c(F)ccc2cc(O)cc(-c3ncc4c(N5CC(c6ccncc6)C5)nc(OC[C@@]56CCCN5C[C@H](F)C6)nc4c3F)c12 [Example 172, 5-ethyl-6-fluoro-4-(8-fluoro-2-(((2R,7aS)-2-fluorohexahydro-1H-pyrrolizin-7a-yl)methoxy)-4-(3-(pyridin-4-yl)azetidin-1-yl)pyrido[4,3-d]pyrimidin-7-yl)naphthalen-2-ol] | ≤ 2 nM | 32 nM | 6 nM | ≥ 10000 nM | 41 nM | 170 nM | 96 nM | 26 nM | ≤ 2 nM | 9 nM | – | – | – | – | – | 79 nM | 481 nM | 192 nM |

The next lines start with results.

| IC50 (KRas G12R) | IC50 (pERK in H460 cells) | IC50 (pERK in H358 cells) | IC50 (pERK in PSN1 cells) | IC50 (pERK in MKN1 cells) | IC50 (pERK in HCT116 cells) | IC50 (pERK in ASPC1 cells) | IC50 (pERK in H727 cells) | IC50 (KRas G12V) | IC50 (KRas G12D) | IC50 (KRas WT) | IC50 (KRas G12C) | IC50 (KRas G12S) | IC50 (KRas G12A) | IC50 (pERK in A549 cells) | SMILES | IC50 [1] | IC50 [2] | IC50 [3] |
| --- | --- | --- | --- | --- | --- | --- | --- | --- | --- | --- | --- | --- | --- | --- | --- | --- | --- | --- |
| ≤ 2 nM | 61 nM | 164 nM | 5150 nM | 17 nM | 56 nM | 49 nM | 45 nM | ≤ 2 nM | ≤ 2 nM | ≤ 2 nM | ≤ 2 nM | ≤ 2 nM | ≤ 2 nM | – | CCc1c(F)ccc2cc(O)cc(-c3ncc4c(N5CCCCCCC5)nc(OC[C@@]56CCCN5C[C@H](F)C6)nc4c3F)c12 [Example 325, 4-(4-(azocan-1-yl)-8-fluoro-2-(((2R,7aS)-2-fluorohexahydro-1H-pyrrolizin-7a-yl)methoxy)pyrido[4,3-d]pyrimidin-7-yl)-5-ethyl-6-fluoronaphthalen-2-ol] | – | – | – |
| – | 60 nM | 11 nM | 859 nM | 5 nM | 30 nM | 15 nM | 19 nM | – | – | – | – | – | – | 20 nM | C[C@@]1(O)CCCN(c2nc(OC[C@@]34CCCN3C[C@H](F)C4)nc3c(F)c(-c4cc(O)cc5ccc(F)c(F)c45)ncc23)C1 [Example 514, (R)-1-(7-(7,8-difluoro-3-hydroxynaphthalen-1-yl)-8-fluoro-2-(((2R,7aS)-2-fluorohexahydro-1H-pyrrolizin-7a-yl)methoxy)pyrido[4,3-d]pyrimidin-4-yl)-3-methylpiperidin-3-ol] | – | – | – |
| – | 11 nM | 2 nM | 600 nM | 2 nM | 22 nM | 8 nM | 8 nM | – | – | – | – | – | – | 19 nM | CCc1c(F)ccc2cc(O)cc(-c3ncc4c(N5CCC[C@]6(C5)C[C@H](O)C6)nc(OC[C@@]56CCCN5C[C@H](F)C6)nc4c3F)c12 (single isomer, unassigned) [Example 323] | – | – | – |
| ≤ 2 nM | 19 nM | 7 nM | – | – | 24 nM | 35 nM | 19 nM | ≤ 2 nM | ≤ 2 nM | – | – | – | – | 36 nM | O=S1(=O)NC[C@]2(CCCN(c3nc(OC[C@@]45CCCN4C[C@H](F)C5)nc4c(F)c(-c5cc(O)cc6ccc(F)c(Cl)c56)ncc34)C2)N1 [Example 515, (R)-7-(7-(8-chloro-7-fluoro-3-hydroxynaphthalen-1-yl)-8-fluoro-2-(((2R,7aS)-2-fluorotetrahydro-1H-pyrrolizin-7a(SB)-yl)methoxy)pyrido[4,3-d]pyrimidin-4-yl)-2-thia-1,3,7-triazaspiro[4.5]decane2,2-dioxide] | – | – | – |
